Reference: patent US11198680B2 (BioAxone BioSciences, Inc., priority 2016, dated 2021)
Where two headings read alike, the source gives them in different places.

Assays:
[1] = tested on: phospho-MLC2 (Ser19); experiment: Transient MCAO stroke model, phospho-MLC2 (Ser19) immunohistochemistry of insular cortex; type: in vivo, mouse; settings: 10 mg/kg I.P.
Method: For immunohistochemistry, mice were anesthetized using isoflurane and perfused intracardially using paraformaldehyde (4% PFA), brain and weights were recorded. Brain specimens from fixed animals were frozen in OCT and sectioned using a cryostat.
Frozen tissue sections embedded in OCT were analyzed by immunohistochemistry. The left side of the brain slice contains ischemic tissue due to the MCAO while the right hemisphere acts as a control without ischemia. Staining with these antibodies provide biomarkers for both ischemic area and ROCK2 activation.

[2] = tested on: human umbilical vein endothelial cells (HUVECs); experiment: LPA-stimulated HUVECs, actin stress fibers and vinculin; type: cell-based; settings: 50 μM, 20 μM LPA 10 min
Method: Primary HUVEC cells (Gibco®, Thermo Fisher, Waltham, Mass.) are cultured in endothelial growth media (Gibco® Medium 200 basal media Cat supplemented with Gibco® Large Vessel Endothelial Supplement). HUVECs between passage 1 and 4 are used for all experiments. HUVECs are cultured on poly-D-lysine-treated glass coverslips (Corning, Corning, N.Y.) coated with 70 μg/ml rat collagen I (Corning, Corning, N.Y.) and cultured for 4 d until a confluent monolayer of cells is established. […] Then HUVECs are stimulated with 20 μM LPA for 10 min and subsequently fixed using 4% paraformaldehyde (PFA)/sucrose solution.
After PFA fixation, cells on coverslips are permeabilized with TBS-Triton-X100 (0.1%), blocked with 1% bovine serum albumin and incubated with mouse vinculin primary antibody (Table 16). Vinculin immunolabelling is visualized using a secondary anti-mouse fluorescent antibody (Table 16). Actin cytoskeleton is visualized by staining with fluorescent phalloidin (Table 16), a compound that specifically binds F-actin filaments. Epifluorescence microscopy is used to acquire images of Immuno- and phalloidin fluorescence, respectively.

[3] = biological target: T1, ROCK2 (Homo sapiens (Human), UniProt O75116); experiment: ROCK2 inhibition curves, MYPT1 substrate plate assay; type: biochemical; settings: purified ROCK2, MYPT1 substrate
T1 sequence (O75116 whole entry, species assumed): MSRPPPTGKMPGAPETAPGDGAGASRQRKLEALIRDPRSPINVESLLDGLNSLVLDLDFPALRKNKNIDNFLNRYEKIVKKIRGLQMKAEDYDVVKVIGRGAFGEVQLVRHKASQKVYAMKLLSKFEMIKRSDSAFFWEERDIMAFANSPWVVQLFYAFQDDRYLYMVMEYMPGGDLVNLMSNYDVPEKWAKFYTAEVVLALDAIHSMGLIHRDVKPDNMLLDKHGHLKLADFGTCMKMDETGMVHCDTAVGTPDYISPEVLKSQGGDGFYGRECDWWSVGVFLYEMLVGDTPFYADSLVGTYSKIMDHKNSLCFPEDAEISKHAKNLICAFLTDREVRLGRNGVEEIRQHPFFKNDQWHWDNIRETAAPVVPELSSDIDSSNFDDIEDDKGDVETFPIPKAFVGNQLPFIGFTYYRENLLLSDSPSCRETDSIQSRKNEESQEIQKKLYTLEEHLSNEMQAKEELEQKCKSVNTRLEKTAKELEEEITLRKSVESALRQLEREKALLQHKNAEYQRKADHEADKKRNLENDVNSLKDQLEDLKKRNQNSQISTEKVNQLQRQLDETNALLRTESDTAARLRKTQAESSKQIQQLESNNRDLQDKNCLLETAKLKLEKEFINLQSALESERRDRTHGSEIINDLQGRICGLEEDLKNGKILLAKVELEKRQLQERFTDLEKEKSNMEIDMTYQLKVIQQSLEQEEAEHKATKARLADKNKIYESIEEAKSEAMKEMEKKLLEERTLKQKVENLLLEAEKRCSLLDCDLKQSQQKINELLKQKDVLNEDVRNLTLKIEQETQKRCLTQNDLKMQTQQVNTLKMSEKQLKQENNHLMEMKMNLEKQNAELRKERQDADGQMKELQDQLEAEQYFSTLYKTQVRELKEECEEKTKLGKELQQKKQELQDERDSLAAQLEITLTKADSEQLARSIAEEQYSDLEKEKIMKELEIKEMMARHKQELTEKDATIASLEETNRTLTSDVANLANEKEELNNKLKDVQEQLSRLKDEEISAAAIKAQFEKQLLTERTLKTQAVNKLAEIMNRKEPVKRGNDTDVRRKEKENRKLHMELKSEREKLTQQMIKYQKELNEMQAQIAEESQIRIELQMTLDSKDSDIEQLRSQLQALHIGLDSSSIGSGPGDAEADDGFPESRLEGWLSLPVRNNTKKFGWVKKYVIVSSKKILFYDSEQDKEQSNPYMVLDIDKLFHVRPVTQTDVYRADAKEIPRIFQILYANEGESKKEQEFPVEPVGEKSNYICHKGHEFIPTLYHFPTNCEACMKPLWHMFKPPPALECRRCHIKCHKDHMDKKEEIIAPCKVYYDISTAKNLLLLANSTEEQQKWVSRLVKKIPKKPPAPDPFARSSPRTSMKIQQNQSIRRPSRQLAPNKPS
Method: Each compound was dissolved at 100 mM in DMSO. This compound-DMSO solution is diluted to 500 μM in dH2O. Serial dilutions were prepared so that a semi-log range of compound is present after being diluted 5× in other assay reagents, from 100 μM through 1 nM.
10 μL of each concentration of each compound was added in duplicate to individual wells of a 96-well Maxisorp plate (ThermoFisher) pre-coated with the ROCK2 substrate MYPT1 (ThermoFisher). dH2O is added as a negative control.
Using a multichannel pipettor, […] of final volume per well was made by the addition of the following of each solution to begin the reaction: 10 μL 20 mM MOPS pH 7.2, 25 mM β-glycerophosphate, 5 mM EGTA, 1 mM Na3VO4, and 1 mM DTT, 10 μL 50 μM ATP, 10 μL 75 mM MgCl2, and 10 μL 1 mU/μL ROCK2 solution. […]
100 μL TMB/E solution was added to each well with a multichannel pipette. Upon sufficient color development, the reaction was stopped using 100 μL stop solution and absorbance read using a Wallac Victor2 plate reader at 450 nm.
Because absorbance values proportional to ROCK2 activity, plotting absorbance at 450 nm versus final concentration of metabolite and parent compound provides inhibition curves. Relative inhibitory profiles were determined through 4PL analysis of these curves. Variations in calculated IC50 are common before assay optimization due to variations in experimental variables.

[4] = tested on: Rho/ROCK activity (MLC2 diphosphorylation) in HUVECs; experiment: LPA-treated HUVECs, pMLC2 T18/S19 immunoblot; type: cell-based, human; settings: 1-100 μM 1 hr, 20 μM LPA 5 min
Method: (§1) Cell lines were exposed to each dose for 1 hr, and then are stimulated with 20 μM LPA for either 5 min or 1 hr as described below. All experiments were conducted in triplicate and analyzed by two independent assessors blinded to both cell line and treatment.
Cells were subjected to biochemical analysis of diphosphorylated MLC2 (Threonine 18/Serine 19 phosphorylation sites) and cofilin (Serine 9 phosphorylation site) using SDS-PAGE and immunoblotting. Cells were plated in 24-well tissue culture plates coated with 70 μg/ml rat collagen-1 (Corning; Corning, N.Y.), and grown for 2 d to 3 d at 37° C./5% CO2 until confluency. […] Then medium was exchanged for Medium 200 supplemented with 0.1% HSA (Sigma-Aldrich) and 20 μM of LPA (Santa Cruz Biotech; Santa Cruz, Calif.) and incubated for 5 min. After LPA stimulation, proteins were extracted from cells by lysis with RIPA buffer supplemented with HALT complete protease/phosphatase inhibitor (ThermoFisher, Waltham, Mass.), reduced and denatured using Laemmli sample buffer (BioRad, Hercules, Calif.)/beta-mercaptoethanol and subjected to SDS-PAGE.
Denatured samples were electrophoresed in reducing 10% Bis-Tris-gels polyacrylamide gels (Novex; Thermo-Fisher, Waltham, Mass.) and were transferred onto 0.25 μm PVDF membranes (EMD Millipore, Billerica, Mass.). Membranes are probed using amti-pMLC2 T18/S19 (1:500; Cell Signaling, Danvers, Mass.) or anti-pCofilin S9 (1:500, Cell Signaling, Danvers, Mass.) and anti-glyceraldehyde 3-phosphate dehydrogenase loading control (GAPDH, 1:10000; Abcam). Protein levels were detected using chemiluminescence substrate (Super Signal West, ThermoFisher, Waltham, Mass.) and images captured using a FluoroChem SP Imaging System.

[5] = tested on: Rho/ROCK activity (MLC2 diphosphorylation) in human brain microvascular endothelial cells; experiment: LPA-treated hBMVECs, pMLC2 T18/S19 immunoblot; type: cell-based; settings: 20 μM LPA, Example 16, present tense, no data shown
Method: (§2) Cells are exposed to each dose for 1 hr, and are then stimulated with 20 μM LPA for either 5 min or 1 hr as described below. All experiments are conducted in triplicate and analyzed by 2 independent assessors blinded to both cell line and treatment.
Cells are subjected to biochemical analysis of diphosphorylated MLC2 (Threonine 18/Serine 19 phosphorylation sites) and phosphorylated cofilin (Serine 9 phosphorylation site) using SDS-PAGE and immunoblotting. Cells are plated in 24-well tissue culture plates coated with 70 μg/ml rat collagen-1 (Corning) and grown in ENDO-growth media (Neuromics) for 3 days at 37° C./5% CO2 until confluency. […] The medium is exchanged for ENDO basal media supplemented with 1% HSA, 20 μM of LPA (Santa Cruz Biotech; Santa Cruz, Calif.) and the appropriate amount of compound being tested. After 5 min, the medium is aspirated and the cells are briefly washed with 1×PBS. Proteins are extracted from cells by lysis with RIPA buffer supplemented with complete protease/phosphatase inhibitor (HALT, Thermo Fisher Scientific), reduced and denatured using Laemmli sample buffer (BioRad; Hercules, Calif., beta-mercaptoethanol and subjected to SDS-PAGE.
Denatured samples are electrophoresed in reducing 10% Bis-Tris-PA gels (Novex; Thermo-Fisher), and are transferred onto 0.25 μm PVDF membranes (EMD Millipore). Membranes are probed using amti-pMLC2 T18/S19 (1:500; Cell Signaling) or anti-pCofilin (1:500, Cell Signaling S9) and anti-glyceraldehyde 3-phosphate dehydrogenase loading control (GAPDH, 1:10000; Abcam, Cambridge, Mass.). Protein levels are detected using a chemiluminescence substrate (Super Signal West, ThermoFisher) and images are captured using a FluoroChem SP Imaging System.

[6] = biological target: NET (norepinephrine transporter) (Homo sapiens (Human), UniProt P23975); settings: Sturdivant et al., ibid.; cited from earlier work
[7] = biological target: SERT (serotonin transporter) (Homo sapiens (Human), UniProt P31645); settings: Sturdivant et al., ibid.; cited from earlier work
[8] = biological target: T2, ROCK1 (Homo sapiens (Human), UniProt Q13464); experiment: Direct filter-binding radiometric kinase assay, IC50 determination; type: biochemical
T2 sequence (Q13464 2-1354 limits assumed): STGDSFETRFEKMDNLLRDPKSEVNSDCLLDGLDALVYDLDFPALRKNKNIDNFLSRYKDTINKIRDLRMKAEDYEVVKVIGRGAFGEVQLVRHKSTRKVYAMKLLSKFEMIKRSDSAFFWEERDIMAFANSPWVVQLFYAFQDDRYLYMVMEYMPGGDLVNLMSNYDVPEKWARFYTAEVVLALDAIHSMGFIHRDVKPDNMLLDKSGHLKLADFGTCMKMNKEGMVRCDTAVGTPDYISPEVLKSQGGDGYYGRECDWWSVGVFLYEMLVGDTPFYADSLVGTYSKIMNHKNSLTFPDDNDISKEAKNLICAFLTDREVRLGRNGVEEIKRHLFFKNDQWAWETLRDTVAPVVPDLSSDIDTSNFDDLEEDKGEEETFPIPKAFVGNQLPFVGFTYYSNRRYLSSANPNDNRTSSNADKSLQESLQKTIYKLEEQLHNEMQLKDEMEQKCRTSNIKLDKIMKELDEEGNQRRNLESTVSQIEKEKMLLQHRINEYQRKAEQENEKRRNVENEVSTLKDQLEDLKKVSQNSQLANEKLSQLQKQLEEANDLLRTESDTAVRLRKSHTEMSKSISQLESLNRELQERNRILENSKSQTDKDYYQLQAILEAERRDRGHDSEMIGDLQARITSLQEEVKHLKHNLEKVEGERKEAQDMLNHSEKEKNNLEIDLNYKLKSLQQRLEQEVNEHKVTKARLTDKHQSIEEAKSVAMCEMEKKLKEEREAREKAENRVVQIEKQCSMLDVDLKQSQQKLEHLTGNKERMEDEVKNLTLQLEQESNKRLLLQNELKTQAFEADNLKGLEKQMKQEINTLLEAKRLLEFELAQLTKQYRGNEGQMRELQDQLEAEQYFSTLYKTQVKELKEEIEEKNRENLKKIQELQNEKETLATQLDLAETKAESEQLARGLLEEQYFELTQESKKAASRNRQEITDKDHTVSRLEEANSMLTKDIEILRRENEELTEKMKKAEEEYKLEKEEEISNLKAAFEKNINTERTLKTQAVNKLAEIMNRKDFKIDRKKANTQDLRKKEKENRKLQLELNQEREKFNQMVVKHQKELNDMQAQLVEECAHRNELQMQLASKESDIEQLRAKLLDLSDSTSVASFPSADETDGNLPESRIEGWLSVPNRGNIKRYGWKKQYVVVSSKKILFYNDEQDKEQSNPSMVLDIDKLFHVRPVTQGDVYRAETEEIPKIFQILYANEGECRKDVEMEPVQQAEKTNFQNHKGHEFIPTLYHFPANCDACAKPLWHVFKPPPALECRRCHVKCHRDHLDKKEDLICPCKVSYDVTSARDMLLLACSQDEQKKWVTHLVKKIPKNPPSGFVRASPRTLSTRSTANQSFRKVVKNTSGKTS
Method: Variations in ATP concentrations were tested to better understand potential selectivity in ischemic and diseased tissue where ATP concentrations may be low and impact selectivity.
[…] Both services use a direct filter-binding, radiometric kinase assay with slight variation in protocol.
The top concentration tested was 100 μM for both services. Test compounds were prepared in 100% DMSO at 50× final test concentration and were diluted to 1× in the assay with a final DMSO concentration of 2%.
For one assay, the substrate […] (SEQ ID NO:1) (30 μM) was mixed with reaction buffer (Table 4) and the kinase domain from either the ROCK1 or ROCK2 (as indicated in Table 4). Next, the compounds (in DMSO) were delivered into the mixture via acoustic mixing technology (Echo550, nanoliter range) (SelectScience, Waltham, Mass.), and incubated at RT for 20 min. […] Reactions were then spotted onto P81 ion exchange paper followed by scintillation counting.
The reaction was stopped by the addition of 3% phosphoric acid and 10 μL of the reaction was spotted onto P30 filtermat, washed 3 times in 75 mM phosphoric acid and once in methanol prior to scintillation counting.

[9] = biological target: T1, ROCK2; experiment: as above; type: biochemical
[10] = tested on: HUVEC monolayer; experiment: LPA-treated HUVECs, endothelial monolayer integrity; type: cell-based, human; settings: 1 μM or 10 μM, 20 μM LPA 60 min
Method: as §1
To examine HUVEC monolayer integrity, cells were plated on PDL-coated coverslips (Corning) coated with fibronectin, collagen-1 and gelatin. 50,000 cells were seeded on each coverslip situated in a 24-well plate. Cells were grown for 3 days at 37° C./5% CO2. […] The medium was exchanged by Medium 200 supplemented with 0.1% HSA and 20 μM of LPA (Santa Cruz) and incubated for 60 min.
After LPA stimulation, cells were fixed with 4% paraformaldehyde and stained for actin-phalloidin (ThermoFisher, Waltham, Mass.) and V-Cadherin (Cell Signaling, Danvers, Mass.) and mounted on microscope slides. Coverslips were imaged by fluorescence microscopy and the cell free holes in the monolayer are measured using Image J (freeware; https://imagej.nih.gov/ij/).

[11] = tested on: hBMVEC monolayer; experiment: LPA-treated hBMVECs, endothelial monolayer integrity; type: cell-based, human; settings: 1 μM or 10 μM, 20 μM LPA, Example 16, present tense
Method: as §2
To examine hBMVECs monolayer integrity, cells are plated on PDL-coated coverslips (Corning) coated with Fibronectin, Collagen-1 and gelatin. 50,000 cells are seeded on each coverslip situated in a 24-well plate. Cells are grown for 3 days in ENDO-growth media (Neuromics) at 37° C./5% CO2. […] The medium is exchanged for ENDO basal media supplemented with 1% HSA, 20 μM of LPA (Santa Cruz Biotech; Santa Cruz, Calif.) and the appropriate amount of compound being tested. After 60 min, cells were fixed with 4% paraformaldehyde and stained for actin-phalloidin (ThermoFisher) and V-Cadherin (Cell Signaling), and then were mounted on microscope slides. Coverslips were imaged by fluorescence microscopy and the cell-free holes in the monolayer are measured using Image J. 3.

[12] = biological target: T2, ROCK1
Method: (§3) The assay is performed by combining the DNA-tagged kinase, immobilized ligand, and a test compound. The ability of the test compound to compete with the immobilized ligand is measured via quantitative PCR of the DNA tag.
(§4) The highest concentration tested was 30 μM.

[13] = biological target: T1, ROCK2; settings: for Fold-Difference: ROCK1 KD vs ROCK2 KD
Method: as §3, §4

[14] = tested on: ROCK2 activation (phospho-cofilin); experiment: Transient MCAO stroke model, phospho-cofilin Western blot left versus right brain; type: in vivo, mouse; settings: 10 mg/kg I.P. within 30 min after MCAO, tissue 24 hr post MCAO
Method: The murine intraluminal monofilament model of middle cerebral artery occlusion (MCAO) is used on mice in this study. MCAO involves the insertion of a surgical filament into the external carotid artery and threading it forward into the internal carotid artery until the tip occludes the origin of the MCA, resulting in a cessation of blood flow and subsequent brain infarction in the MCA territory. The technique is used herein to model transient occlusion. If the filament is removed after 1 h, reperfusion is achieved (transient MCAO). This study determines the most efficacious dose and route of administration that reduce Rho-kinase 2 (ROCK2) activation following transient MCAO-induced stroke in mice. The pharmacodynamic response is also determined in this study.
Twenty-eight 9-wk old C57BL/6 (Charles River Laboratories) were used in this study. For surgery, the mouse was placed in a supine position on an infrared heating pad. The fur over the ventral neck was shaved and the skin was disinfected with 70% ethanol and povidone iodine. Under a stereo dissecting microscope, a 1 cm midline incision was made on the neck and retractors were used to expose the left common carotid artery (CCA), the external carotid artery (ECA) and the internal carotid artery (ICA). The arteries were carefully dissected to free them from surrounding nerves and fascia. The ECA was dissected further distally and two 8-0 silk sutures are tied around the ECA stump and a vascular clamp was applied at the bifurcation of the CCA into the ECA and ICA. A small incision was made at the end of ECA stump with Vannas-style spring scissors. A blunt 5-0 monofilament suture (Doccol) was inserted into the incision and advanced from the lumen of the ECA into the ICA for a distance of 9-10 mm beyond the bifurcation of CCA to occlude the origin of MCA. For the mouse model, a distance of 9 mm-11 mm rostral to the CCA bifurcation is inserted. After 60 min., the monofilament was removed. The incision was sutured with 4.0 prolene sutures. […] The mouse is allowed to recover on a heating pad until thermoregulation is re-established.
For Western blot analysis, mice were anesthetized using isoflurane and decapitated. […]
20 μL protease inhibitor (Halt, Protease, Fisher Scientific, Pittsburgh, Pa.) and 10 μL phosphatase inhibitor (Fisher Scientific) were added to 1 mL RIPA buffer (Santa Cruz Biotechnology, Dallas, Tex.). […] The protein concentration of each sample was determined using the DC Protein Assay Kit and following the manufacturer's instructions.
The left and right hemispheres of each brain were homogenized and prepared for Western blotting, and the signal of phospho-cofilin was measured quantitatively by densitometry compared to an internal standard, cyclophilin. […]

[15] = read-out: Compound IC50 ROCK1 10 μM ATP, CRO Eurofins, 10 μM ATP
[16] = read-out: Compound IC50 ROCK2 10 μM ATP, CRO Eurofins, 10 μM ATP

Question: Which results are given for `O=S(=O)(c1cccc2cnccc12)N1CCCNCC1` [Fasudil]?
Answer: phospho-MLC2 (Ser19) staining of small blood vessels of insular cortex [1]: reduces the amount of staining; actin stress fiber formation upon LPA stimulation [2]: prevents such formation of stress fiber; vinculin immunofluorescence, integrity of HUVEC monolayer upon LPA stimulation [2]: upregulation of vinculin-positive focal adhesion complexes associated with a decreased cell confluency

Question: Which “inhibitory activity for ROCK2 relative to parent BA-1049 (R)” value [3] does the source give for `C[C@@H](N)C1CCN(S(=O)(=O)c2cccc3c[n+]([O-])ccc23)CC1` [N-oxide-BA-1049 (R)] here?
Answer: The value was “does not exhibit any inhibitory activity”.

Question: What about the “effect on MLC2 diphosphorylation (pMLC2 T18/S19)” value [4] of the same compound?
Answer: Its value is “did not show such an effect”.

Question: And the “effect on MLC2 diphosphorylation (pMLC2 T18/S19)” value [5]?
Answer: Its value is “do not show such an effect”.

Question: With `Cc1ccc(C(=O)OCc2ccc([C@@H](CN)C(=O)Nc3ccc4cnccc4c3)cc2)c(C)c1` [AR-13324] as the compound, how does the “% Inhibition of Neurotransmitter Transporter Activity, NET” value [6] read?
Answer: Its value is 96%.

Question: What about the “% Inhibition of Neurotransmitter Transporter Activity, SERT” value [7] of the same compound?
Answer: Its value is 94%.

Question: Which results are given for `C[C@H](N)C1CCN(S(=O)(=O)c2cccc3cnccc23)CC1`?
Answer: IC50 ([8]; 10 μM ATP, Table 2, read-out: Compound IC50 ROCK1): 10200 nM; IC50 [8, 15]: 10200 nM; IC50 ([8]; read-out: Compound IC50 ROCK1 10 μM ATP, CRO Reaction Biology, 10 μM ATP): 1440 nM; IC50 ([8]; read-out: Compound IC50 ROCK1 70 μM ATP, Km ATP 70 μM, Table 3): 57900 nM; IC50 ([8]; read-out: Compound IC50 ROCK1 70 μM ATP, Km ATP 70 μM, Table 7): 57900 nM; IC50 ([9]; 10 μM ATP, Table 2, read-out: Compound IC50 ROCK2): 730 nM; Fold-Difference ([9]; CRO Eurofins, 10 μM ATP): 14.1; Fold-Difference ([9]; CRO Reaction Biology, 10 μM ATP): 2.0; Fold-Difference ([9]; ROCK1 (70 μM ATP) vs ROCK2 (15 μM ATP) IC50): 57.9; Fold-Difference ([9]; ROCK1 vs ROCK2 IC50, 10 μM ATP): 14.1; IC50 [9, 16]: 730 nM; IC50 ([9]; read-out: Compound IC50 ROCK2 10 μM ATP, CRO Reaction Biology, 10 μM ATP): 720 nM; IC50 ([9]; read-out: Compound IC50 ROCK2 15 μM ATP, Km ATP 15 μM, Table 3): 1000 nM; IC50 ([9]; read-out: Compound IC50 ROCK2 15 μM ATP, Km ATP 15 μM, Table 7): 1000 nM; effect on MLC2 diphosphorylation (pMLC2 T18/S19) [4]: reduce MLC2 diphosphorylation; monolayer integrity after LPA [10]: neither concentration reverses the effect of LPA; effect on MLC2 diphosphorylation (pMLC2 T18/S19) [5]: reduce MLC2 diphosphorylation; monolayer integrity / Rho/ROCK activation after LPA [11]: neither concentration reverses the effect of LPA; Kd ([12]; read-out: ROCK1 KD, average of duplicate determinations, Table 5): 155 nM; Kd ([12]; read-out: ROCK1 Kd, Table 1): 120 nM; Fold-Difference ([13]; Table 5): 0.9; Fractional Selectivity for ROCK2 ([13]; ratio of dissociation constants ROCK1/ROCK2): 0.92; Kd ([13]; read-out: ROCK2 KD, average of duplicate determinations, Table 5): 160 nM; Kd ([13]; read-out: ROCK2 Kd, Table 1): 130 nM

Question: With `CC(N)C1CCN(S(=O)(=O)c2cccc3cnccc23)CC1` (racemic) [BA-1049] as the compound, how does the IC50 [8, 15] read?
Answer: The IC50 was 6800 nM.

Question: And the IC50 ([8]; read-out: Compound IC50 ROCK1 10 μM ATP, CRO Reaction Biology, 10 μM ATP, listed as Racemic BA-1049: Lot 1)?
Answer: The IC50 was 1280 nM.

Question: What about the IC50 ([8]; read-out: Compound IC50 ROCK1 10 μM ATP, CRO Reaction Biology, 10 μM ATP, listed as Racemic BA-1049: Lot 2) of the same compound?
Answer: The IC50 was 1020 nM.

Question: What about the IC50 ([8]; read-out: Compound IC50 ROCK1 10 μM ATP, CRO Upstate Cell Signaling, 10 μM ATP) of the same compound?
Answer: The IC50 was 10200 nM.

Question: And the Fold-Difference ([9]; CRO Eurofins, 10 μM ATP)?
Answer: The Fold-Difference was 12.4.

Question: And the Fold-Difference ([9]; CRO Reaction Biology, 10 μM ATP, listed as Racemic BA-1049: Lot 1)?
Answer: Its Fold-Difference is 2.1.

Question: And the Fold-Difference ([9]; CRO Reaction Biology, 10 μM ATP, listed as Racemic BA-1049: Lot 2)?
Answer: The Fold-Difference was 2.8.

Question: What about the Fold-Difference ([9]; CRO Upstate Cell Signaling, 10 μM ATP) of the same compound?
Answer: Its Fold-Difference is 12.8.

Question: What about the IC50 [9, 16] of the same compound?
Answer: Its IC50 is 550 nM.

Question: And the IC50 ([9]; read-out: Compound IC50 ROCK2 10 μM ATP, CRO Reaction Biology, 10 μM ATP, listed as Racemic BA-1049: Lot 1)?
Answer: The IC50 was 600 nM.

Question: And the IC50 ([9]; read-out: Compound IC50 ROCK2 10 μM ATP, CRO Reaction Biology, 10 μM ATP, listed as Racemic BA-1049: Lot 2)?
Answer: The IC50 was 1020 nM.

Question: And the IC50 ([9]; read-out: Compound IC50 ROCK2 10 μM ATP, CRO Upstate Cell Signaling, 10 μM ATP)?
Answer: The IC50 was 800 nM.

Question: And the “ratio of phospho-cofilin expression left (MCAO) versus right hemisphere” value [14]?
Answer: The value was “strongly reduced”.

Question: What about the “phospho-MLC2 (Ser19) staining of small blood vessels of insular cortex” value [1] of the same compound?
Answer: Its value is “even more effective than Fasudil at reducing small vessel staining”.

Question: What about the Kd ([12]; read-out: ROCK1 KD, average of duplicate determinations, Table 5, listed as Racemic BA-1049: Lot 1) of the same compound?
Answer: Its Kd is 54 nM.

Question: And the Kd ([12]; read-out: ROCK1 KD, average of duplicate determinations, Table 5, listed as Racemic BA-1049: Lot 2)?
Answer: Its Kd is 89 nM.

Question: And the Fold-Difference ([13]; Table 5, listed as Racemic BA-1049: Lot 1)?
Answer: The Fold-Difference was 1.2.

Question: And the Fold-Difference ([13]; Table 5, listed as Racemic BA-1049: Lot 2)?
Answer: The Fold-Difference was 1.3.

Question: And the Kd ([13]; read-out: ROCK2 KD, average of duplicate determinations, Table 5, listed as Racemic BA-1049: Lot 1)?
Answer: Its Kd is 46 nM.

Question: What about the Kd ([13]; read-out: ROCK2 KD, average of duplicate determinations, Table 5, listed as Racemic BA-1049: Lot 2) of the same compound?
Answer: The Kd was 66 nM.
